Drawing on PubChem BioAssay AID1347408 (Pan Lab, Icahn School of Medicine at Mount Sinai, 2020), this text covers IC50 for 11 molecules.

Each structure is given as a SMILES string. Results filed as inconclusive are left out. Activity calls are given as the source filed them.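 Rule for the calls: active = IC50 half-inhibiting concentration at or below 10 micromolar; inconclusive = IC50 above 10 and up to 20 micromolar; inactive = IC50 above 20 micromolar.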

Sequence of E3 ubiquitin-protein ligase RBX1 (Homo sapiens) + Cullin-1 (Homo sapiens) (P62877 whole entry, looked up): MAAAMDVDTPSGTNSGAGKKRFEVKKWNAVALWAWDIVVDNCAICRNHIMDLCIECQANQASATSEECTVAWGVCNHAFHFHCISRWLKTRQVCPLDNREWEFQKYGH
Sequence of E3 ubiquitin-protein ligase RBX1 (Homo sapiens) + Cullin-1 (Homo sapiens) (Q13616 whole entry, looked up): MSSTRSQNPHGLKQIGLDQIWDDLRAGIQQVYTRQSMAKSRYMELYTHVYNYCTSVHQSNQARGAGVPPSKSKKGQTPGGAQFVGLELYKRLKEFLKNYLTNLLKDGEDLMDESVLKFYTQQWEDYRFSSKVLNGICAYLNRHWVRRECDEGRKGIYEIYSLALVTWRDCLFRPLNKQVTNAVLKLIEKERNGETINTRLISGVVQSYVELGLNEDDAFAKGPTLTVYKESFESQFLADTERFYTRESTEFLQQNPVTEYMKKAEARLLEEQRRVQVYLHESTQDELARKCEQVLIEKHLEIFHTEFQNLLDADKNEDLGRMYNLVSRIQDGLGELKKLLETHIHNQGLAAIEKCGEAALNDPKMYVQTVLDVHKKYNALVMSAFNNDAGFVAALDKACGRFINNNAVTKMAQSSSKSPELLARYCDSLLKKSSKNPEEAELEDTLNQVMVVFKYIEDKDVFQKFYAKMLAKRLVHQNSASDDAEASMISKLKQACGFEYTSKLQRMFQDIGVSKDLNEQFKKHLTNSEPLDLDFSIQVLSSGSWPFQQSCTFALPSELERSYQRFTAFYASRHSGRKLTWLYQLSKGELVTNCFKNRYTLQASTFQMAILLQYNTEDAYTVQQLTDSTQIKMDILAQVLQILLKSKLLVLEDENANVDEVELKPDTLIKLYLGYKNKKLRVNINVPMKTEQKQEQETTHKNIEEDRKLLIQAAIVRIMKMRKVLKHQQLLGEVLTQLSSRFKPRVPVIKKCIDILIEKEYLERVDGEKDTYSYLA

This assay concerns the target E3 ubiquitin-protein ligase RBX1 (Homo sapiens) + Cullin-1 (Homo sapiens) (UniProt P62877+Q13616). Nature of the assay: inhibition of cullin E3 di-ubiquitin formation – biochemical, FRET, E1/Cdc34 cascade, dose response (AID 1347408). The note with it: in vitro di-Ub FRET, E1/Cdc34/ROC1-CUL1 CTD.
For the molecule `CCOc1cccc2c1N[C@@H](c1ccc(C(=O)O)cc1)[C@H]1CC=C[C@@H]21`, the IC50 entry is “inactive”.

For `COc1ccc(C=C2C(=O)N(Cc3ccco3)C(=O)N(C(C)C)C2=O)cc1`, the IC50 entry was “inactive”.

In the case of `Cc1ccc([C@@H]2Nc3c(ccc(C(=O)O)c3C)[C@@H]3C=CC[C@@H]32)cc1`, the IC50 result was “inactive”.

Regarding `CCNc1ccc(Br)cc(C(=O)/C=C/c2c(Cl)cccc2Cl)c1=O`, the IC50 entry was “inactive”.

`CCCCCCCCCOc1ccc(C#CC(=O)O)cc1`: the half-inhibitory concentration (IC50) is 4.2 µM.

Regarding `CNc1ccccc(C(=O)C=Cc2ccc3c(c2)OCO3)c1=O`, the IC50 result is “inactive”.

As for `NCCCSc1nc2c(c(=O)n1Cc1ccccc1)C1(CCCCC1)Cc1ccccc1-2`, the IC50 entry was “inactive”.

`CCOc1ccc2nc3cc(NC(=O)c4ccco4)ccc3c(N)c2c1`: the IC50 was 4.8 µM.

As for `Cc1ccc2c(c1)-c1c(c(C(=O)N3CCN(c4cc(C)ccc4C)CC3)nn1C)CS2`, the IC50 entry was “inactive”.

For `Cc1ccc(NC(=O)c2ccc(Cl)cc2Cl)c(S(=O)(=O)O)c1`, the IC50 result was “inactive”.

As for `CN(CCC(=O)C=Cc1ccc(Cl)c(Cl)c1)CCc1ccc2c(c1)OCO2`, the IC50 result was “inactive”.

In general, IC50 refers to the concentration at which inhibition is half-maximal.
